Experimental findings from US4695545A, “Culture and process for producing A41030 antibiotics” (Eli Lilly and Company, priority 1984, dated 1987) are described below.

The subject of one data set is Streptococcus pneumoniae. The data set can be described thus: MIC aerobic bacteria, standard agar-dilution assay. Type of data set: cell-based. The settings on record: Streptococcus pneumoniae Park I, 24 hours.
A further data set relates to Clostridium septicum. The data set can be described thus: MIC anaerobic bacteria, agar-dilution. It counts as cell-based. The settings on record: Clostridium septicum 1128.
The subject of the next data set is Enterobacter aerogenes. In words: MIC aerobic bacteria, standard agar-dilution assay. It counts as cell-based. The settings on record: Enterobacter aerogenes C32, 24 hours.
Data set [1] deals with Bacteroides thetaiotaomicron. The data set can be described thus: MIC anaerobic bacteria, agar-dilution. It counts as cell-based. The settings on record: Bacteroides thetaiotaomicron 1438.
In data set [2] the test system is Peptostreptococcus intermedius. The data set can be described thus: MIC anaerobic bacteria, agar-dilution. Type of data set: cell-based. As to conditions: Peptostreptococcus intermedius 1264.
The nature of data set [3]: Electrometric titration (pKa). Type of data set: physicochemical. As to conditions: electrometric titration in 66% dimethylformamide in water. From the text: Antibiotic A41030 factor A is a white, crystalline solid.

For A41030 factor B, the MIC in the data set on Streptococcus pneumoniae came to 0.5 µg/mL; with Clostridium septicum, 4 µg/mL; in the data set with Enterobacter aerogenes it was 64 µg/mL; in data set [1], 32 µg/mL; in data set [2], 0.5 µg/mL. Also, the “pKa, first titratable group” value in data set [3] is given as “about 5.6”. In addition, the “pKa, second titratable group” value in data set [3] was around 7.5. Further, the “possibly additional pKa's” value in data set [3] (stated as possible) is on record as above 10.
